Experimental data: patent US11767319B2, “Crystalline forms of a selective c-kit kinase inhibitor” (Third Harmonic Bio, Inc., priority 2020, dated 2023)
“Also recorded” adds a separate entry of the source.

Columns and labels:
Assay type in all cases: physicochemical
[1] = Dynamic Vapor Sorption (DVS) of Form C
Protocol: Approximately, 10 mg of sample was placed into a mesh vapor sorption balance pan and loaded into a DVS-1/DVS Intrinsic/DVS Advantage dynamic vapor sorption balance by Surface Measurement Systems. The sample was subjected to a ramping profile from 40-90% relative humidity (RH) at 10% increments, maintaining the sample at each step until a stable weight had been achieved (dm/dt 0.004%, minimum step length 30 min, maximum step length 500 min) at 25° C. After completion of the sorption cycle, the sample was dried using the same procedure to 0% RH and then a second sorption cycle back to 40% RH. Two cycles were performed. The weight change during the sorption/desorption cycles were plotted, allowing for the hygroscopic nature of the sample to be determined. XRPD analysis was then carried out on any solid retained.
FIGS. 1D and 1E depict DVS plots of Form C of compound 1. […] Below 20% RH, Form C experienced a mass loss of 8.6%, about equal to 2 equivalents of water.
(§1) FIG. 1F depicts a set of XRPD patterns of Form C of compound 1, comparing the originally isolated form, material after DVS experiments and material after being dried under vacuum. […] Form G was also observed after vacuum drying of Form C.

[2] = Slurry experiments in SGF; conditions: 37° C., 500 rpm
Protocol: About 200 mg of sodium chloride and about 100 mg Triton X-100 was weighted into a 100-mL volumetric flask. About 100 mL of purified water was added to the flask and the solution was sonicated until all solids were completely dissolved. 1 M HCl was added to adjust the pH to 1.8 and the solution was mixed well and the pH was checked with a pH meter.
Competitive slurry experiments were performed for Forms A, H^A, H^B, C and D in SGF. About 10 mg of each form was added into separate HPLC vials followed by addition of 1.0 mL SGF in order to form slurries. The slurries were heated to 37° C. and stirred at 500 rpm. After 2 h or 24 h, the samples were centrifuged and the solids were collected for XRPD testing.

Vacuum drying of Form C = conditions: dried under vacuum
Protocol: as §1
Procedure A: Form C of compound 1 was dried under vacuum at 40° C. for about 2 hours. After drying Form G was recovered.

[3] = Competitive slurry experiments among anhydrates (IPA/IPAc); conditions: at RT and 50° C., IPA/IPAc slurries
Protocol: Competitive slurry experiments were performed in IPA/IPAc at RT/50° C. between anhydrates Form A of compound 1 and Form D of compound 1. Form A of compound 1 was added into each solvent to form a slurry at RT or 50° C. and was stirred for 2 h. The slurries were then filtered to obtain saturated solution. Around 10 mg each of Form A of compound 1 and Form D of compound 1 were added into each solution to form a mixed slurry at RT or 50° C. […] The formation of Form H^A of compound 1 is postulated to be caused by residual water in the solvents or due to ambient humidity (˜35% humidity during slurry experiments).

[4] = Variable temperature XRPD of Form D; conditions: heating to 150° C. or cooling to 30° C. under N2 purge
Protocol: FIG. 2D depicts a variable temperature XRPD of Form D of compound 1. The variable temperature experiment was conducted to further investigate the weight loss observed in the TGA curve.

Row | SMILES | form after DVS (XRPD) ([1]; after DVS experiments) | mass loss (DVS) ([1]; below 20% RH, 25° C.) [%] | total mass uptake (DVS) ([1]; between 20% and 90% RH, 25° C.) [%] | XRPD at 2 h [2] | XRPD at 24 h [2] | form after vacuum drying (XRPD) (Vacuum drying of Form C) | relative thermodynamic stability [3] | form change in variable temperature XRPD [4]
1 | Cc1ccc(-c2noc([C@H]3C[C@@H]3F)n2)cc1NC(=O)c1cnc2ccccn12 [Form C, N-(5-(5-((1R,2S)-2-fluorocyclopropyl)-1,2,4-oxadiazol-3-yl)-2-methylphenyl)imidazo[1,2-a]pyridine-3-carboxamide] | converted into Form G | 8.6 | 0.6 | No form change; also recorded: Form C | No form change; also recorded: Form C | Form G | – | –
2 | Cc1ccc(-c2noc([C@H]3C[C@@H]3F)n2)cc1NC(=O)c1cnc2ccccn12 [Form D, N-(5-(5-((1R,2S)-2-fluorocyclopropyl)-1,2,4-oxadiazol-3-yl)-2-methylphenyl)imidazo[1,2-a]pyridine-3-carboxamide] | – | – | – | transformed to Form C | a mixture of Form C and an HCl salt form | – | thermodynamically more stable than Form A | no form change
